≈ marks a conversion by molar mass, not a printed value. Square brackets hold non-standard residues; d marks the D form. Peptide text beside a SMILES is read from it. MeBmt = C/C=C/C[C@@H](C)[C@@H](O)[C@H](NC)C(=O)O; NMeL = CN[C@@H](CC(C)C)C(=O)O; NMeV = CN[C@H](C(=O)O)C(C)C; Sar = CNCC(=O)O
Assays:
[1] = system: Hepatitis C virus; experiment: Antiviral activity against HCV subgenomic replicon assessed as inhibition of replication by qRT-PCR analysis; type: functional, organism-based, Hepacivirus hominis
[2] = system: Hepatitis C virus; experiment: Ratio of EC50 for FR901459 to EC50 for test compound for antiviral activity against HCV subgenomic replicon assessed as inhibition of replication by qRT-PCR analysis; type: functional, Hepacivirus hominis

SMILES: C/C=C/C[C@@H](C)[C@@H](O)[C@H]1C(=O)N[C@@H]([C@@H](C)O)C(=O)N(C)[C@H](C)C(=O)N(C)[C@@H](CC(C)C)C(=O)N[C@@H](CC(C)C)C(=O)N(C)[C@@H](CC(C)C)C(=O)N[C@@H](C)C(=O)N[C@H](C)C(=O)N(C)[C@@H](CC(C)C)C(=O)N[C@@H](CC(C)C)C(=O)N(C)[C@@H](C(C)C)C(=O)N1C
- EC50 [1]: 0.038 µg/mL (≈ 0.0308 µM)
- Ratio EC50 [2]: 2.5

SMILES: C/C=C/C[C@@H](C)[C@@H](O)[C@H]1C(=O)N[C@@H]([C@@H](C)O)C(=O)N(C)CC(=O)N(C)[C@@H](CC(C)C)C(=O)N[C@@H](CC(C)C)C(=O)N(C)[C@@H](CC(C)C)C(=O)N[C@@H](C)C(=O)N[C@H](C)C(=O)N(C)[C@@H](CC(C)C)C(=O)N[C@@H](CC(C)C)C(=O)N(C)[C@@H](C(C)C)C(=O)N1C (cyclo(A[dA][NMeL]L[NMeV][MeBmt]T[Sar][NMeL]L[NMeL]))
- EC50 [1]: 0.096 µg/mL (≈ 0.0788 µM)

Source: ChEMBL document CHEMBL4725252, “Development of an efficient semisynthetic modification of FR901459 via a novel regioselective N, O-acyl migration” (Bioorg Med Chem Lett, 2020)
